Results: patent publication US11242334B2, “Heterocyclic compounds as kinase inhibitors, compositions comprising the heterocyclic compound, and methods of use thereof” (JS INNOPHARM (SHANGHAI) LTD, priority 2017, dated 2022)

Molecular target: T1, human ERK2 (Homo sapiens, UniProt P28482)
T1 construct: recombinantly expressed as GST-tagged full-length protein purified from E. coli; GST; purchased Invitrogen PV3311; host or cells: E. coli
Test: LanthaScreen TR-FRET enzymatic assay, ERK2
Details: IC50 values of ERK2 biochemical activity; 5 μM ATP, 400 nM ATF2-GFP substrate
Procedure: Compounds were tested in a LanthaScreen™ time-resolved fluorescence energy transfer (TR-FRET) enzymatic assay from Invitrogen. The assay used human ERK2 (Mitogen Activated Kinase 1, Invitrogen, Cat. PV3311) recombinantly expressed as GST-tagged full-length protein purified from E. coli and activated in vitro with MAP2K1. The substrate was a recombinant truncated version (residues 19-96) of ATF2 fused with Green Fluorescent Protein (Invitrogen, Cat. PV4445). Test compounds were prepared and diluted in DMSO in 3-fold serial dilutions to 100× of the final testing concentrations. The compounds were then further diluted to 4× by the kinase reaction buffer (Invitrogen, Cat. PV3189). The enzymatic reaction for compound testing was performed in a white 384-well polypropylene plate (Packard, Cat. 6005214) with a total reaction volume of 10 μl containing 20 ng/ml ERK2, 400 nM substrate, and 5 μM ATP that is around its Km. The assay started with loading 2.5 μl of ERK2 diluted in kinase reaction buffer to wells, followed by addition of equal volume of 4× compounds for 15-min incubation at the room temperature for pre-treatment. The enzymatic reaction was initiated by addition of 5 μl of mixture of the substrate and ATP prepared in kinase reaction buffer. After one hour reaction, 10 μl mixture of EDTA (final 10 mM) and terbium-labeled anti-pATF2 (pThr71) antibody (final 2 nM) (Invitrogen, Cat. PV4451) prepared in TR-FRET antibody dilution buffer (Invitrogen, Cat. PV3574) was added to stop the enzymatic reaction and produce TR-FRET signals. After 30 minutes of incubation at room temperature, the plate was read in Tecan Infinite F200 Pro with the following settings: Excitation 340 nm (30)/Emission1 495 nm (10)/Emission2 520 nm (25). The TR-FRET values were dimensionless numbers that were calculated as the ratio of the acceptor ([…]) signal to the donor (Terbium) signal. Percent of control was calculated as the percentage of compound-treated vs 1% DMSO vehicle-treated. The dose-response curves were generated and the ICsos were calculated by nonlinear sigmoid curve fitting using GraphPad Prism.
The IC50 values of ERK2 biochemical activity for the examples disclosed herein are listed in Table 3, A: ≤10 nM; B: >10 nM and ≤50 nM; C: >50 nM and ≤100 nM; D.>100 nM.

T1 sequence (P28482 whole entry): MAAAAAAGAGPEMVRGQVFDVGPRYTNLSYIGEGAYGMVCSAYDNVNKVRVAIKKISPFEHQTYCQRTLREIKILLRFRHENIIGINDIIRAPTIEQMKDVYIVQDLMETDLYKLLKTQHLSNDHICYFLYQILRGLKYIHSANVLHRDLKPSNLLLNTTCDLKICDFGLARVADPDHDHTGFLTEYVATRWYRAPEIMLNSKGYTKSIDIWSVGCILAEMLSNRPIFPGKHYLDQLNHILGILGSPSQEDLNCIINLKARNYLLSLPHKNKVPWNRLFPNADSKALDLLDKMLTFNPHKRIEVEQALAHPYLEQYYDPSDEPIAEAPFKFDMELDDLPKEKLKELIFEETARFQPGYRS

| IC50 | Compound |
| --- | --- |
| < 10 nM | C[C@@H](c1cc(F)cc(Br)c1)n1ccc(-c2ccc3[nH]nc(-c4cnn(C)c4)c3c2)cc1=O (single isomer, unassigned) [Example 96A] |
| < 10 nM | C[C@H](c1cc(F)cc(Br)c1)n1ccc(-c2ccc3[nH]nc(-c4cnn(C)c4)c3c2)cc1=O (single isomer, unassigned) [Example 96B] |
| < 10 nM | Cc1cc(-c2n[nH]c3ccc(-c4ccn([C@H](CO)c5cccc(Cl)c5)c(=O)c4)cc23)ccn1 [Example 1, (S)-1-(1-(3-chlorophenyl)-2-hydroxyethyl)-4-(3-(2-methyl-pyridin-4-yl)-1H-indazol-5-yl)pyridin-2(1H)-one] |

Tested on: Colo205 cell line
Test: Colo205 cell proliferation assay (MTT assay, WST-8 readout)
Type: cell-based
Details: Homo sapiens; IC50 values of growth inhibition in Colo 205 cells; 72 hours
Procedure: Compounds disclosed herein were tested for the inhibition of ERK2 by a Colo205 cell proliferation assay commonly known as MTT assay. In this assay, a complete media was prepared by adding 10% fetal bovine serum to RPMI-1640 medium (Life technology). Colon cancer cells (Colo205 cell line) were added to each of 88 wells of a 96 well plate at a seeding density of 5,000 cells/well/90 μL. The cells were allowed to attach to the plate by incubating at 37° C. for 24 hours. The compound was dissolved in DMSO (SIGMA). A solution of test compound was prepared in complete media by serial dilution to obtain the following concentrations: 500 μM, 150 μM, 50 μM, 15 μM, 5 μM, 1.5 μM, 0.5 μM, 0.15 μM and 0.05 μM. The test compound solution (10 μL) was added to each of 80 cell-containing wells. The final concentrations of the compound were following: 50 μM, 15 μM, 5 μM, 1.5 μM, 0.5 μM, 0.15 μM, 0.05 μM, 0.015 μM and 0.005 μM. The final concentration of DMSO is 0.5%. To the 8 remaining cell-containing wells, only complete media (containing 0.5% DMSO) was added to form a control group in order to measure maximal proliferation. To the remaining 8 empty wells, complete media was added to for a vehicle control group in order to measure background. The plates were incubated at 37° C. for 72 hours. 10 μL WST-8 solution (DOJINDO, Cell Counting KIT-8) was added to each well. The plates were further incubated at 37° C. for 2 hours, and then read for the absorbance using a microplate reader at 450 nm.
The IC50 values of growth inhibition in Colo 205 cells for Compounds disclosed are listed in Table 3, A′: ≤0.5 μM; B′: >0.5 μM and ≤1 μM; C′: >1.0 μM and ≤5 uM; D′: >5 μM.

| Compound | IC50 |
| --- | --- |
| C[C@@H](c1cc(F)cc(Br)c1)n1ccc(-c2ccc3[nH]nc(-c4cnn(C)c4)c3c2)cc1=O (single isomer, unassigned) [Example 96A] | 1000 to 5000 nM |
| C[C@H](c1cc(F)cc(Br)c1)n1ccc(-c2ccc3[nH]nc(-c4cnn(C)c4)c3c2)cc1=O (single isomer, unassigned) [Example 96B] | ≤ 500 nM |
| O=c1cc(-c2ccc3[nH]nc(-c4ccc(F)cn4)c3c2)ccn1[C@H](CO)c1cc(F)cc(Br)c1 [Example 125, (S)-1-(1-(3-bromo-5-fluorophenyl)-2-hydroxyethyl)-4-(3-(5-fluoropyridin-2-yl)-1H-indazol-5-yl)pyridin-2(1H)-one] | 500 to 1000 nM |
| O=c1cc(-c2ccc3[nH]nc(-c4ccc5ncnn5c4)c3c2)ccn1[C@H](CO)c1cc(F)cc(Br)c1 [Example 128, (S)-4-(3-([1,2,4]triazolo[1,5-a]pyridin-6-yl)-1H-indazol-5-yl)-1-(1-(3-bromo-5-fluorophenyl)-2-hydroxyethyl)pyridin-2(1H)-one] | ≤ 500 nM |
| O=c1cc(-c2ccc3[nH]nc(-c4ccc5nccn5c4)c3c2)ccn1[C@H](CO)c1cc(F)cc(Br)c1 [Example 129, (S)-1-(1-(3-bromo-5-fluorophenyl)-2-hydroxyethyl)-4-(3-(imidazo[1,2-a]pyridin-6-yl)-1H-indazol-5-yl)pyridin-2(1H)-one] | ≤ 500 nM |
| Cc1nc2ccc(-c3n[nH]c4ccc(-c5ccn([C@H](CO)c6cc(F)cc(Br)c6)c(=O)c5)cc34)cn2n1 [Example 130, (S)-1-(1-(3-bromo-5-fluorophenyl)-2-hydroxyethyl)-4-(3-(2-methyl-[1,2,4]triazolo[1,5-a]pyridin-6-yl)-1H-indazol-5-yl)pyridin-2(1H)-one] | ≤ 500 nM |
| Cc1nn(C)cc1-c1n[nH]c2ccc(-c3ccn([C@H](CO)c4cc(F)cc(Br)c4)c(=O)c3)cc12 [Example 138, (S)-1-(1-(3-bromo-5-fluorophenyl)-2-hydroxyethyl)-4-(3-(1,3-dimethyl-1H-pyrazol-4-yl)-1H-indazol-5-yl)pyridin-2(1H)-one] | 500 to 1000 nM |
| CNc1n[nH]c2ccc(-c3ccn([C@H](CO)c4cc(F)cc(Br)c4)c(=O)c3)cc12 [Example 141, (S)-1-(1-(3-bromo-5-fluorophenyl)-2-hydroxyethyl)-4-(3-(methylamino)-1H-indazol-5-yl)pyridin-2(1H)-one] | 1000 to 5000 nM |
| O=c1cc(-c2ccc3[nH]nc(C4CCOC4)c3c2)ccn1[C@H](CO)c1cc(F)cc(Br)c1 (stereo partly drawn) [Example 150, 1-((S)-1-(3-bromo-5-fluorophenyl)-2-hydroxyethyl)-4-(3-(tetrahydrofuran-3-yl)-1H-indazol-5-yl)pyridin-2(1H)-one] | 1000 to 5000 nM |
| O=c1cc(-c2ccc3[nH]nc(N4CCC(O)C4)c3c2)ccn1[C@H](CO)c1cc(F)cc(Br)c1 (stereo partly drawn) [Example 151, 1-((S)-1-(3-bromo-5-fluorophenyl)-2-hydroxyethyl)-4-(3-(3-hydroxypyrrolidin-1-yl)-1H-indazol-5-yl)pyridin-2(1H)-one] | 1000 to 5000 nM |

Further lines, results first:

| IC50 | Compound |
| --- | --- |
| ≤ 500 nM | Cc1cc(-c2n[nH]c3ccc(-c4ccn([C@H](C)c5ccnc(C(F)(F)F)c5)c(=O)c4)cc23)ccn1 (single isomer, unassigned) [Example 142B] |
| ≤ 500 nM | Cc1cc(-c2n[nH]c3ccc(-c4ccn([C@H](CO)c5cccc(Cl)c5)c(=O)c4)cc23)ccn1 [Example 1, (S)-1-(1-(3-chlorophenyl)-2-hydroxyethyl)-4-(3-(2-methyl-pyridin-4-yl)-1H-indazol-5-yl)pyridin-2(1H)-one] |
| > 5000 nM | Cc1cc(-c2n[nH]c3ccc(-c4ccn(CCN5CCOCC5)c(=O)c4)cc23)ccn1 [Example 54, 4-(3-(2-methylpyridin-4-yl)-1H-indazol-5-yl)-1-(2-morpholinoethyl)pyridin-2(1H)-one] |
| > 5000 nM | O=c1cc(-c2ccc3[nH]nc(-c4ccnc(C(F)(F)F)c4)c3c2)ccn1Cc1ccnc(C(F)(F)F)c1 [Example 126, 4-(3-(2-(trifluoromethyl)pyridin-4-yl)-1H-indazol-5-yl)-1-((2-(trifluoromethyl)pyridin-4-yl)methyl)pyridin-2(1H)-one] |
| 1000 to 5000 nM | Cc1cc(Cn2ccc(-c3ccc4[nH]nc(-c5ccnc(C)c5)c4c3)cc2=O)ccn1 [Example 127, 4-(3-(2-methylpyridin-4-yl)-1H-indazol-5-yl)-1-((2-methylpyridin-4-yl)methyl)pyridin-2(1H)-one] |
| 1000 to 5000 nM | Cc1cc(-c2n[nH]c3ccc(-c4ccn(Cc5ccc(C(F)(F)F)nc5)c(=O)c4)cc23)ccn1 [Example 131, 4-(3-(2-methylpyridin-4-yl)-1H-indazol-5-yl)-1-((6-(trifluoromethyl)pyridin-3-yl)methyl)pyridin-2(1H)-one] |
| 1000 to 5000 nM | CCc1cc(-c2n[nH]c3ccc(-c4ccn(Cc5ccnc(C(F)(F)F)c5)c(=O)c4)cc23)ccn1 [Example 132, 4-(3-(2-ethylpyridin-4-yl)-1H-indazol-5-yl)-1-((2-(trifluoromethyl)pyridin-4-yl)methyl)pyridin-2(1H)-one] |
| 1000 to 5000 nM | O=c1cc(-c2ccc3[nH]nc(-c4ccnc(C5CC5)c4)c3c2)ccn1Cc1ccnc(C(F)(F)F)c1 [Example 133, 4-(3-(2-cyclopropylpyridin-4-yl)-1H-indazol-5-yl)-1-((2-(trifluoromethyl)pyridin-4-yl)methyl)pyridin-2(1H)-one] |
| 1000 to 5000 nM | Cc1cc(-c2n[nH]c3ccc(-c4ccn([C@H](CO)c5ccnc(C(F)(F)F)c5)c(=O)c4)cc23)ccn1 [Example 134, (S)-1-(2-hydroxy-1-(2-(trifluoromethyl)pyridin-4-yl)ethyl)-4-(3-(2-methylpyridin-4-yl)-1H-indazol-5-yl)pyridin-2(1H)-one] |
| 1000 to 5000 nM | Cc1cc(-c2n[nH]c3ccc(-c4ccn(Cc5nc(C(F)(F)F)cs5)c(=O)c4)cc23)ccn1 [Example 135] |
| 1000 to 5000 nM | Cc1cc(-c2n[nH]c3ccc(-c4ccn(Cc5cccnc5C(F)(F)F)c(=O)c4)cc23)ccn1 [Example 136, 4-(3-(2-methylpyridin-4-yl)-1H-indazol-5-yl)-1-((2-(trifluoromethyl)pyridin-3-yl)methyl)pyridin-2(1H)-one] |
| 500 to 1000 nM | Cc1cc(-c2n[nH]c3ccc(-c4ccn(Cc5cccc(C(F)(F)F)n5)c(=O)c4)cc23)ccn1 [Example 137, 4-(3-(2-methylpyridin-4-yl)-1H-indazol-5-yl)-1-((6-(trifluoromethyl)pyridin-2-yl)methyl)pyridin-2(1H)-one] |
| 1000 to 5000 nM | Cc1cc(-c2n[nH]c3ccc(-c4ccn(Cc5cc(C(F)(F)F)no5)c(=O)c4)cc23)ccn1 [Example 139, 4-(3-(2-methylpyridin-4-yl)-1H-indazol-5-yl)-1-((3-(trifluoromethyl)isoxazol-5-yl)methyl)pyridin-2(1H)-one] |

Same assay, conditions: IC50 values of growth inhibition in Colo 205 cells; 72 hours

| IC50 | Compound |
| --- | --- |
| 1000 to 5000 nM | Cc1cc(-c2n[nH]c3ccc(-c4ccn([C@@H](C)c5ccnc(C(F)(F)F)c5)c(=O)c4)cc23)ccn1 [Example 142A, (S)-4-(3-(2-methylpyridin-4-yl)-1H-indazol-5-yl)-1-(1-(2-(trifluoromethyl)pyridin-4-v1)ethyl)pyridin-2(1H)-one] |
